# Source: US12247032B2, “Substituted pyrazolo[1,5-a]pyrimidines as inhibitors of JAK kinases” (Genentech, Inc., priority 2019, dated 2025)
# What was measured:
# [1] = tested on: JAK1 (IL-13-stimulated STAT6 phosphorylation in BEAS-2B cells); assay: P-STAT6 BEAS-2B+IL-13 cell assay; format: cell-based, human; conditions: Homo sapiens, BEAS-2B, 1 h, 1 hour compound, IL-13 15 minutes, IC50 by four-parameter fit, read-out: Cellular JAK1 PSTAT6 BEAS2B + IL13
# How it was run: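 BEAS-2B human bronchial epithelial cells preincubated 1 h at 37 °C with compound, then stimulated with human recombinant IL-13 for 15 min. Phospho-STAT6 (Tyr641) in lysates measured by MSD electrochemiluminescence immunoassay; IC50 from a four-parameter logistic fit of percent of control.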
# [2] = target: T1, recombinant human JAK1 kinase domain protein (Residues 854-1154) (Homo sapiens, UniProt P23458); assay: JAK1 biochemical assay (microfluidic mobility shift, peptide phosphorylation); conditions: 25 μM ATP, 1 nM total JAK1; Ki calculated from Ki app (tight-binding, competitive); read-out: Biochem JAK1 Ki
# T1 construct: human JAK1 kinase domain protein (Residues 854-1154); purchased Proteros Biostructures GmbH (Martinsried, Germany); host or cells: insect cells
# T1 sequence (P23458 854-1154): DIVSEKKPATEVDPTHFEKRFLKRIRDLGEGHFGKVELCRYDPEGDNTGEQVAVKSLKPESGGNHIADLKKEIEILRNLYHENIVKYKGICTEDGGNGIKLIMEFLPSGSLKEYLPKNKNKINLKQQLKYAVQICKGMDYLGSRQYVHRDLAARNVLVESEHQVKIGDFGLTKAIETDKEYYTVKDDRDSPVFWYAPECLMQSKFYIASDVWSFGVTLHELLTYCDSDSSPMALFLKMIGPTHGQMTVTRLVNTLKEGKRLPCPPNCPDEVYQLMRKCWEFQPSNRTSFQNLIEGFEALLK
# How it was run: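 Insect-cell-expressed human JAK1 (1 nM, residues 854-1154) or JAK2 (0.2 nM, residues 812-1132) phosphorylating 1.5 μM 5-FAM peptide Y-1B with 25 μM ATP, pH 7.2 HEPES, 30 min at 22-23 °C; twelve concentrations up to 1000 nM in duplicate. Mobility-shift % conversion fitted to tight-binding quadratic for Ki^app.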
Structure (SMILES),IC50 [1],Ki [2]
"O=C(Nc1cn(Cc2nnn(C3CNC3)n2)nc1-c1cc(OC(F)F)ccc1OC(F)F)c1cnn2cccnc12 [Example 11, N-[1-[[2-(azetidin-3-yl)tetrazol-5-yl]methyl]-3-[2,5-bis(difluoromethoxy)phenyl]pyrazol-4-yl]pyrazolo[1,5-a]pyrimidine-3-carboxamide]",23 nM,0.39 nM
"CN1CC(n2nnc(Cn3cc(NC(=O)c4cnn5cccnc45)c(-c4cc(C5CC5)ccc4OC(F)F)n3)n2)C1 [Example 23, N-[3-[5-cyclopropyl-2-(difluoromethoxy)phenyl]-1-[[2-(1-methylazetidin-3-yl)tetrazol-5-yl]methyl]pyrazol-4-yl]pyrazolo[1,5-a]pyrimidine-3-carboxamide]",17 nM,0.42 nM
"O=C(Nc1cn(Cc2nnn(C3CCNC3)n2)nc1-c1cc(OC(F)F)ccc1OC(F)F)c1cnn2cccnc12 (single isomer, unassigned) [Example 27, N-[3-[2,5-bis(difluoromethoxy)phenyl]-1-[(2-pyrrolidin-3-yltetrazol-5-yl)methyl]pyrazol-4-yl]pyrazolo[1,5-a]pyrimidine-3-carboxamide]",12 nM,0.35 nM
"CN(C)CCN1CCC(n2nnc(Cn3cc(NC(=O)c4cnn5cccnc45)c(-c4cc(OC(F)F)ccc4OC(F)F)n3)n2)CC1 [Example 61, N-[3-[2,5-bis(difluoromethoxy)phenyl]-1-[[2-[1-[2-(dimethylamino)ethyl]-4-piperidyl]tetrazol-5-yl]methyl]pyrazol-4-yl]pyrazolo[1,5-a]pyrimidine-3-carboxamide]",32 nM,0.63 nM
